Where two headings read alike, the source gives them in different places.
Test system: Anopheles funestus metabolic-resistant strain FUMOZ-R
Assay: Metabolic-Resistant Anopheles Test (mortality on treated tile, wood, concrete)
Type: in vivo
Conditions: for mortality at 100 mg/m2: Clothianidin 100 mg/m2, read-out: Mortality Effect %; for mortality at 200 mg/m2: Clothianidin 200 mg/m2, read-out: Mortality Effect %
Method: To produce a suitable preparation of active compound combination the active compounds deltamethrin and clothanidin were dissolved in acetone (for the control group only one active compound was dissolved in acetone). The active compound combination preparation (and the active compound preparations) were pipetted onto a glazed tile, wood and concrete and, after drying, adult mosquitoes of the species Anopheles funestus metabolic-resistant strain FUMOZ-R (Hunt et al., Med Vet Entomol. 2005 September; 19(3):271-5) are placed onto the treated tile, wood and concrete. The exposition time is 30 minutes.
1 hour, 2 hour, 4 hour, 24 hours after contact to the treated surface, the mortality proportion of the test animals in % is determined. Here, 100% means that all mosquitoes have been killed; 0% means that none of the mosquitoes has been killed. The treated tile, wood and concrete was stored under stress conditions (30° C./80% rh). Measurement with the treated tile, wood and concrete was repeated 5 weeks (Table 1), 11 weeks (Table 2) and 60 weeks (Table 3) after the treatment with the active compound combination.

[1] = 5 weeks after treatment, Concrete, 1 h after contact
[2] = 5 weeks after treatment, Concrete, 2 h after contact
[3] = 5 weeks after treatment, Concrete, 4 h after contact
[4] = 5 weeks after treatment, Concrete, 24 h after contact
[5] = 5 weeks after treatment, Tile, 1 h after contact
[6] = 5 weeks after treatment, Tile, 2 h after contact
[7] = 5 weeks after treatment, Tile, 4 h after contact
[8] = 5 weeks after treatment, Tile, 24 h after contact
[9] = 5 weeks after treatment, Wood, 1 h after contact
[10] = 5 weeks after treatment, Wood, 2 h after contact
[11] = 5 weeks after treatment, Wood, 4 h after contact
[12] = 5 weeks after treatment, Wood, 24 h after contact
[13] = 11 weeks after treatment, Concrete, 1 h after contact
[14] = 11 weeks after treatment, Concrete, 2 h after contact
[15] = 11 weeks after treatment, Concrete, 4 h after contact
[16] = 11 weeks after treatment, Concrete, 24 h after contact
[17] = 11 weeks after treatment, Tile, 1 h after contact
[18] = 11 weeks after treatment, Tile, 2 h after contact
[19] = 11 weeks after treatment, Tile, 4 h after contact
[20] = 11 weeks after treatment, Tile, 24 h after contact
[21] = 11 weeks after treatment, Wood, 1 h after contact
[22] = 11 weeks after treatment, Wood, 2 h after contact
[23] = 11 weeks after treatment, Wood, 4 h after contact
[24] = 11 weeks after treatment, Wood, 24 h after contact
[25] = 60 weeks after treatment, Concrete, 1 h after contact
[26] = 60 weeks after treatment, Concrete, 2 h after contact
[27] = 60 weeks after treatment, Concrete, 4 h after contact
[28] = 60 weeks after treatment, Concrete, 24 h after contact
[29] = 60 weeks after treatment, Tile, 1 h after contact
[30] = 60 weeks after treatment, Tile, 2 h after contact
[31] = 60 weeks after treatment, Tile, 4 h after contact
[32] = 60 weeks after treatment, Tile, 24 h after contact
[33] = 60 weeks after treatment, Wood, 1 h after contact
[34] = 60 weeks after treatment, Wood, 2 h after contact
[35] = 60 weeks after treatment, Wood, 4 h after contact
[36] = 60 weeks after treatment, Wood, 24 h after contact

CN/C(=N\[N+](=O)[O-])NCc1cnc(Cl)s1 [Clothianidin, clothianidin]
3%: mortality at 200 mg/m2 [1] | mortality at 200 mg/m2 [13] | mortality at 100 mg/m2 [22] | mortality at 100 mg/m2 [26] | mortality at 200 mg/m2 [30] | mortality at 200 mg/m2 [34] | mortality at 200 mg/m2 [35]
15%: mortality at 100 mg/m2 [1]
43%: mortality at 200 mg/m2 [19] | mortality at 200 mg/m2 [32]
80%: mortality at 100 mg/m2 [8]
83%: mortality at 200 mg/m2 [4] | mortality at 200 mg/m2 [16]
90%: mortality at 200 mg/m2 [8]
47%: mortality at 200 mg/m2 [15]
27%: mortality at 100 mg/m2 [11] | mortality at 100 mg/m2 [24]
93%: mortality at 100 mg/m2 [4] | mortality at 100 mg/m2 [12] | mortality at 200 mg/m2 [12] | mortality at 100 mg/m2 [16]
0%: mortality at 100 mg/m2 [5] | mortality at 200 mg/m2 [5] | mortality at 200 mg/m2 [6] | mortality at 100 mg/m2 [21] | mortality at 100 mg/m2 [25] | mortality at 200 mg/m2 [25] | mortality at 100 mg/m2 [29] | mortality at 200 mg/m2 [29] | mortality at 100 mg/m2 [30] | mortality at 100 mg/m2 [31] | mortality at 100 mg/m2 [33] | mortality at 200 mg/m2 [33] | mortality at 100 mg/m2 [34] | mortality at 100 mg/m2 [35]
20%: mortality at 100 mg/m2 [10] | mortality at 200 mg/m2 [11] | mortality at 200 mg/m2 [18] | mortality at 100 mg/m2 [27]
73%: mortality at 100 mg/m2 [15] | mortality at 200 mg/m2 [20]
67%: mortality at 100 mg/m2 [14]
33%: mortality at 100 mg/m2 [23]
40%: mortality at 200 mg/m2 [24]
10%: mortality at 100 mg/m2 [2] | mortality at 200 mg/m2 [7] | mortality at 200 mg/m2 [10] | mortality at 100 mg/m2 [18] | mortality at 100 mg/m2 [36]
63%: mortality at 200 mg/m2 [28]
23%: mortality at 100 mg/m2 [13]
30%: mortality at 100 mg/m2 [3] | mortality at 200 mg/m2 [3]
7%: mortality at 100 mg/m2 [6] | mortality at 100 mg/m2 [7] | mortality at 100 mg/m2 [9] | mortality at 200 mg/m2 [9] | mortality at 100 mg/m2 [17] | mortality at 200 mg/m2 [17] | mortality at 200 mg/m2 [26] | mortality at 200 mg/m2 [31]
37%: mortality at 100 mg/m2 [20] | mortality at 100 mg/m2 [28]
13%: mortality at 100 mg/m2 [19] | mortality at 200 mg/m2 [21]
17%: mortality at 200 mg/m2 [2] | mortality at 200 mg/m2 [14] | mortality at 200 mg/m2 [22] | mortality at 200 mg/m2 [23] | mortality at 200 mg/m2 [27] | mortality at 100 mg/m2 [32] | mortality at 200 mg/m2 [36]
